Key:
Format in all cases: in vivo
[1] = system: barnyardgrass (Echinochloa crus-galli); assay: Test A postemergence; settings: Echinochloa crus-galli, post-emergence, 240 h, 125 g ai/ha, postemergence, visual injury rating after approximately 10 d; read-out: Barnyardgrass plant response rating (0 to 100 scale, 0 no effect, 100 complete control)
In short: (§1)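 Seeded soil received test chemicals as a preemergence directed spray, and seedlings at one to two leaves, 2–10 cm tall, received them postemergence, in a non-phytotoxic, surfactant-containing solvent mixture. Pots were held in a greenhouse for approximately 10 d, then rated for injury from 0, no effect, to 100, complete control.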

[2] = system: blackgrass (Alopecurus myosuroides); assay: Test A postemergence; settings: Alopecurus myosuroides, post-emergence, 240 h, 125 g ai/ha, postemergence, visual injury rating after approximately 10 d; read-out: Blackgrass plant response rating (0 to 100 scale, 0 no effect, 100 complete control)
In short: as §1

[3] = system: pigweed (Amaranthus retroflexus); assay: Test A postemergence; settings: Amaranthus retroflexus, post-emergence, 240 h, 125 g ai/ha, postemergence, visual injury rating after approximately 10 d; read-out: Pigweed plant response rating (0 to 100 scale, 0 no effect, 100 complete control)
In short: as §1

Kochia (Kochia scoparia) [4] = assay: Test A postemergence; settings: Bassia scoparia, post-emergence, 240 h, 125 g ai/ha, postemergence, visual injury rating after approximately 10 d; read-out: Kochia plant response rating (0 to 100 scale, 0 no effect, 100 complete control)
In short: as §1

[5] = system: barnyardgrass (Echinochloa crus-galli); assay: Test B flooded paddy test; settings: Echinochloa crus-galli, Flood, 250 g ai/ha; scale of 0 to 100 where 0 is no effect and 100 is complete control; read-out: Barnyardgrass plant response rating
In short: (§2)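 Greenhouse paddy pots with 2-leaf stage plants received compound by direct addition to floodwater 3 cm deep, kept at that level. Scored visually at 13–15 d versus controls (0 no effect; 100 complete control).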

[6] = system: ducksalad (Heteranthera limosa); assay: Test B flooded paddy test; settings: Heteranthera limosa, Flood, 250 g ai/ha; scale of 0 to 100 where 0 is no effect and 100 is complete control; read-out: Ducksalad plant response rating
In short: as §2

rice (Oryra sativa) = assay: Test B flooded paddy test; settings: Oryza sativa, Flood, 250 g ai/ha; scale of 0 to 100 where 0 is no effect and 100 is complete control; read-out: Rice plant response rating
In short: as §2

[7] = system: sedge, umbrella (small-flower umbrella sedge, Cyperus difformis); assay: Test B flooded paddy test; settings: Cyperus difformis, Flood, 250 g ai/ha; scale of 0 to 100 where 0 is no effect and 100 is complete control; read-out: Sedge, Umbrella plant response rating
In short: as §2

[8] = system: barnyardgrass (Echinochloa crus-galli); assay: Test A preemergence; settings: Echinochloa crus-galli, pre-emergence, 240 h; for pest or weed control at 125 g/ha: 125 g ai/ha, preemergence, 0 to 100 scale where 0 is no effect and 100 is complete control, read-out: Barnyardgrass plant response rating; for pest or weed control at 500 g/ha: 500 g ai/ha, Preemergence, visual injury vs untreated controls after approximately 10 d, read-out: Barnyardgrass plant response rating (0 to 100 scale where 0 is no effect and 100 is complete control)
In short: as §1

[9] = system: ryegrass, Italian (Italian ryegrass, Lolium multiflorum); assay: Test A preemergence; settings: Lolium multiflorum, pre-emergence, 240 h; for pest or weed control at 125 g/ha: 125 g ai/ha, preemergence, 0 to 100 scale where 0 is no effect and 100 is complete control, read-out: Ryegrass, Italian plant response rating; for pest or weed control at 500 g/ha: 500 g ai/ha, Preemergence, visual injury vs untreated controls after approximately 10 d, read-out: Ryegrass, Italian plant response rating (0 to 100 scale where 0 is no effect and 100 is complete control)
In short: as §1

[10] = system: giant foxtail (Setaria faberii); assay: Test A preemergence; settings: Setaria faberi, pre-emergence, 240 h; for pest or weed control at 125 g/ha: 125 g ai/ha, preemergence, 0 to 100 scale where 0 is no effect and 100 is complete control, read-out: Foxtail, Giant plant response rating; for pest or weed control at 500 g/ha: 500 g ai/ha, Preemergence, visual injury vs untreated controls after approximately 10 d, read-out: Foxtail, Giant plant response rating (0 to 100 scale where 0 is no effect and 100 is complete control)
In short: as §1

[11] = system: pigweed (Amaranthus retroflexus); assay: Test A preemergence; settings: Amaranthus retroflexus, pre-emergence, 240 h; for pest or weed control at 125 g/ha: 125 g ai/ha, preemergence, 0 to 100 scale where 0 is no effect and 100 is complete control, read-out: Pigweed plant response rating; for pest or weed control at 500 g/ha: 500 g ai/ha, Preemergence, visual injury vs untreated controls after approximately 10 d, read-out: Pigweed plant response rating (0 to 100 scale where 0 is no effect and 100 is complete control)
[12] = system: ragweed (common ragweed, Ambrosia elatior); assay: Test A preemergence; settings: Ambrosia artemisiifolia, pre-emergence, 240 h; for pest or weed control at 125 g/ha: 125 g ai/ha, preemergence, 0 to 100 scale where 0 is no effect and 100 is complete control, read-out: Ragweed plant response rating; for pest or weed control at 500 g/ha: 500 g ai/ha, Preemergence, visual injury vs untreated controls after approximately 10 d, read-out: Ragweed plant response rating (0 to 100 scale where 0 is no effect and 100 is complete control)
In short: as §1

Kochia (Kochia scoparia) [13] = assay: Test A preemergence; settings: Bassia scoparia, pre-emergence, 240 h; for pest or weed control at 125 g/ha: 125 g ai/ha, preemergence, 0 to 100 scale where 0 is no effect and 100 is complete control, read-out: Kochia plant response rating; for pest or weed control at 500 g/ha: 500 g ai/ha, Preemergence, visual injury vs untreated controls after approximately 10 d, read-out: Kochia plant response rating (0 to 100 scale where 0 is no effect and 100 is complete control)
In short: as §1

Row | Structure (SMILES) | pest or weed control at 125 g/ha [1] [%] | pest or weed control at 125 g/ha [2] [%] | pest or weed control at 125 g/ha [3] [%] | pest or weed control at 125 g/ha (Kochia (Kochia scoparia) [4]) [%] | pest or weed control at 250 g/ha [5] [%] | pest or weed control at 250 g/ha [6] [%] | pest or weed control at 250 g/ha (rice (Oryra sativa)) [%] | pest or weed control at 250 g/ha [7] [%] | pest or weed control at 125 g/ha [8] [%] | pest or weed control at 500 g/ha [8] [%] | pest or weed control at 125 g/ha [9] [%] | pest or weed control at 500 g/ha [9] [%] | pest or weed control at 125 g/ha [10] [%] | pest or weed control at 500 g/ha [10] [%] | pest or weed control at 125 g/ha [11] [%] | pest or weed control at 500 g/ha [11] [%] | pest or weed control at 125 g/ha [12] [%] | pest or weed control at 500 g/ha [12] [%] | pest or weed control at 125 g/ha (Kochia (Kochia scoparia) [13]) [%] | pest or weed control at 500 g/ha (Kochia (Kochia scoparia) [13]) [%]
1 | CN1C[C@H](c2cccc(F)c2)[C@@H](C(=O)Nc2ccccc2C(F)(F)F)C1=O [Compound 823] | 90 | 20 | 20 | 20 | 40 | 90 | 0 | 0 | 90 | 100 | 30 | 60 | 100 | 100 | 0 | 50 | 0 | 40 | 0 | 70
2 | N#Cc1cccc(NC(=O)[C@H]2C(=O)NC[C@@H]2c2cccc(C(F)(F)F)c2)c1F [Compound 829] | 80 | 40 | 0 | 0 | 55 | 70 | 0 | 0 | 90 | 90 | 20 | 40 | 90 | 90 | 0 | 60 | 30 | 70 | 60 | 90
3 | COc1ccccc1NC(=O)[C@H]1C(=O)N(C)C[C@@H]1c1ccc(C(F)(F)F)cc1 [Compound 843] | 40 | 0 | 20 | 40 | 0 | 20 | 0 | 0 | 60 | 80 | 0 | 50 | 90 | 90 | 0 | 40 | 0 | 30 | 60 | 70
4 | CN1CC(c2cccc(I)c2)C(C(=O)Nc2ccccc2F)C1=O (centres unmarked) [Compound 846] | 90 | 50 | 0 | 40 | 60 | 60 | 0 | 0 | 90 | 90 | 60 | 70 | 90 | 90 | 0 | 0 | 0 | 0 | 20 | 70

Reference: patent publication US12077503B2, “Substituted cyclic amides and their use as herbicides” (FMC CORPORATION, priority 2015, dated 2024)
